{"source": "paper PMC5066224", "about": "“A Novel Resveratrol Based Tubulin Inhibitor Induces Mitotic Arrest and Activates Apoptosis in Cancer Cells” (Scientific Reports, 2016)", "key": {"CEM cells [1]": {"test_system": "CEM cells", "experiment": "Immunoblotting of cell cycle and apoptotic proteins", "assay_type": "cell-based, Human", "conditions": "5 μM, 24, 48 and 72 h", "protocol": "(§1) Cell lysate was prepared after treating with SS28 (5 μM for 24, 48 and 72 h) from CEM and A549 cell lines. In brief, cells were harvested, washed with PBS, resuspended in lysis buffer (RIPA, 25 mM Tris (pH 7.6), 150 mM NaCl, 1% NP-40, 1% sodium deoxycholate and 0.1% SDS) containing protease inhibitors. The protein lysate was cleared by centrifugation (14,000 rpm, for 15 min). The protein concentration in the supernatant was determined using the Bradford’s assay.\n(§2) For western blot analysis, ~40 μg proteins were resolved over 8–10% SDS–polyacrylamide gel[60][61][62]. Following gel electrophoresis, proteins were transferred to PVDF membrane (Millipore, USAQ9). The primary antibodies used were against Caspase 3, Caspase 9, p73, p53, KU70, KU80, Cyclin B1, CDK6, PARP1 and Actin (Santa Cruz Biotechnology, USA). The membrane was incubated with appropriate HRP-conjugated secondary antibody (2 h at 4° C). The blots were developed using chemiluminescent solution (Immobilon^TM western, Millipore) and scanned by gel documentation system (LAS 3000, FUJI, Japan). Blots were stripped subsequently as per standard protocols and reprobed with anti β-Actin antibody."}, "[2]": {"test_system": "mouse embryonic fibroblast cells (MEF)", "experiment": "Trypan blue dye exclusion cell viability assay", "assay_type": "cell-based", "conditions": "48 h", "protocol": "(§3) The effect of SS28 on viability of CEM, Reh, Nalm6, SUDHL8, Molt4, A549, HeLa 293T, mouse embryonic fibroblast (MEF) and PBMC was determined by trypan blue dye exclusion assay as described previously. Briefly, cells (0.75 × 10^5 cells/ml) were treated with increasing concentrations of SS28 (1, 5, 10 and 20, μM) for 48 and 72 h. DMSO treated cells were used as the vehicle control. Cells were harvested and subjected to trypan blue assay. Data from a minimum of three independent experiments is presented as a histogram with error bars."}, "SUDHL8": {"test_system": "SUDHL8", "experiment": "Trypan blue dye exclusion cell viability assay", "assay_type": "cell-based", "conditions": "Homo sapiens, SU-DHL-8, 48 h", "protocol": "as §3"}, "Molt4": {"test_system": "Molt4", "experiment": "Trypan blue dye exclusion cell viability assay", "assay_type": "cell-based", "conditions": "Homo sapiens, MOLT-4, 48 h", "protocol": "as §3"}, "A549": {"test_system": "A549", "experiment": "Trypan blue dye exclusion cell viability assay", "assay_type": "cell-based", "conditions": "Homo sapiens, 48 h", "protocol": "as §3"}, "Nalm6": {"test_system": "Nalm6", "experiment": "Trypan blue dye exclusion cell viability assay", "assay_type": "cell-based", "conditions": "Homo sapiens, NALM-6, 48 h", "protocol": "as §3"}, "CEM": {"test_system": "CEM", "experiment": "Trypan blue dye exclusion cell viability assay", "assay_type": "cell-based", "conditions": "Homo sapiens, CCRF-CEM, 48 h", "protocol": "as §3"}, "[3]": {"test_system": "peripheral blood mononuclear cells (PBMC)", "experiment": "Trypan blue dye exclusion cell viability assay", "assay_type": "cell-based", "conditions": "48 h", "protocol": "as §3"}, "HeLa cells": {"test_system": "HeLa cells", "experiment": "Trypan blue dye exclusion cell viability assay", "assay_type": "cell-based", "conditions": "Homo sapiens, 48 h", "protocol": "as §3"}, "Reh": {"test_system": "Reh", "experiment": "Trypan blue dye exclusion cell viability assay", "assay_type": "cell-based", "conditions": "Homo sapiens, 48 h", "protocol": "as §3"}, "CEM cells [4]": {"test_system": "CEM cells", "experiment": "Mitochondrial membrane potential (JC-1 staining, flow cytometry)", "assay_type": "cell-based, Human", "conditions": "CEM, 1, 5, 10, 20 μM, 48 h", "protocol": "Flow cytometric analysis of cells stained with JC-1 was used to measure changes in mitochondrial transmembrane potential as described. Briefly, cells were seeded at a density of 1 × 10^5 cells/ml and treated with SS28 (1, 5, 10 and 20 μM). After 48 h, cells were harvested, washed and incubated with JC-1 (5,5′,6,6 tetrachloro-1,1′,3,3′-tetraethyl benzimidazol carbocyanine iodide; Calbiochem, USA) for 15 min. 2,4-Dinitrophenol-treated cells (2,4-DNP) served as the positive control. Cells were processed and analyzed by flow cytometry using CellQuest pro software with an excitation at 488 nm laser and emission at 530 nm. JC-1 monomers emit at 530 nm and J-aggregates emit at 590 nm."}, "HEK293T": {"test_system": "HEK293T", "experiment": "Trypan blue dye exclusion cell viability assay", "assay_type": "cell-based, human", "conditions": "1-20 μM, compared to most of the cancer cells", "protocol": "as §3"}, "CEM cells [5]": {"test_system": "CEM cells", "experiment": "Cell cycle phase distribution by flow cytometry", "assay_type": "cell-based, Human", "conditions": "2 μM, after 12 h", "protocol": "Cell cycle analysis by flow cytometry was performed as previously described. Briefly, 75,000 cells/ml (A549) were seeded in 6 well plates and grown in serum free medium for 18 h. After synchronisation, the cells were treated with 5 μM of SS28 (6, 12, 18, 24 and 30 h) and cells were processed as described before. Similarly, CEM cells (75,000 cells/ml) were treated with SS28 (2 μM) and harvested (6, 12, 18, 24 and 30 h) and processed. Following fixation, cells were resuspended in PBS and stained with propidium iodide and evaluated in a flow cytometer (FACS Calibur, Becton Dickinson) using Cell Quest Pro software using excitation 488 nm laser and emission at 560/570 nm. A minimum of 10,000 cells were acquired per sample and histograms were analysed using WinMDI 2.8 software."}, "A549 cells": {"test_system": "A549 cells", "experiment": "Immunoblotting of cell cycle and apoptotic proteins", "assay_type": "cell-based, human", "conditions": "A549, 5 μM, 24, 48 and 72 h", "protocol": "as §1, §2"}, "EAC cells tumor": {"test_system": "EAC cells tumor", "experiment": "Antitumor activity in EAC solid tumor mouse model", "assay_type": "in vivo", "conditions": "EAC tumor BALB/c mice, 15 mg/kg oral, nine doses every alternate day from 12th day, up to 28 days", "protocol": "EAC cells were collected from donor mice (Swiss albino) and resuspended in sterile saline. A fixed number of viable cells were injected into the peritoneal cavity of each recipient mouse and were allowed to multiply. The cells were withdrawn, diluted in saline and injected (15 × 10^5 cells/animal) into the right thigh tissue of experimental animals for developing solid tumor.\nA total number of 30 BALB/c mice were divided into three batches and were used for the present study. EAC cells (15 × 10^5 cells/animal) were injected into right thigh for the development of solid tumor as described previously. Among the 10 animals in each batch, 5 animals served as tumor control and the rest 5 animals received SS28 treatment (15 mg/kg b.wt.) by oral administration using gastric gavage. The dose used was selected based on preliminary studies. The first dose was given after 12th day of tumor development (9 doses over a period of 3 weeks). The diameter of developing tumor was measured using vernier calipers at alternative days for entire life span of tumor animal and tumor volume was calculated using the formula V = 0.5 × a × b^2, where “a” and “b” indicates the major and minor diameter, respectively."}}, "note": "pIC50: −log10 of the molar value."}
{"smiles": "COc1cc(/C=C/c2ccc(C)cc2)cc(OC)c1OC", "note": "[SS28, (E)-1,2,3-trimethoxy-5-(4-methylstyryl)benzene]", "values": [{"measurement": "Caspase 3", "setting": "CEM cells [1]", "result": "showed activation"}, {"measurement": "Caspase 9", "setting": "CEM cells [1]", "result": "increase in the cleaved Caspase 9 level"}, {"measurement": "PARP1", "setting": "CEM cells [1]", "result": "activation of PARP1"}, {"measurement": "expression level of Cdk6", "setting": "CEM cells [1]", "result": "increased at 24 h followed by a decrease at 48 and 72 h"}, {"measurement": "expression levels of p53", "setting": "CEM cells [1]", "result": "upregulation of p53 at 24 h time point followed by a decrease in the later time points"}, {"measurement": "level of Cyclin B1", "setting": "CEM cells [1]", "result": "increased at 48 h time point in CEM cells followed by a decrease at 72 h"}, {"measurement": "pIC50", "setting": "[2]", "result": 5.30}, {"measurement": "pIC50", "setting": "SUDHL8", "result": 5.57}, {"measurement": "pIC50", "setting": "Molt4", "result": 5.29}, {"measurement": "pIC50", "setting": "A549", "result": 5.28}, {"measurement": "pIC50", "setting": "Nalm6", "result": 4.68}, {"measurement": "pIC50", "setting": "CEM", "result": 5.59}, {"measurement": "pIC50", "setting": "[3]", "result": "< 4.46"}, {"measurement": "pIC50", "setting": "HeLa cells", "result": 4.49}, {"measurement": "pIC50", "setting": "Reh", "result": 5.10}, {"measurement": "mitochondrial membrane potential (JC-1 fluorescence)", "setting": "CEM cells [4]", "result": "concentration dependant increase in the green fluoresced cells"}, {"measurement": "cytotoxicity on normal cell line", "setting": "HEK293T", "result": "limited cytotoxicity"}, {"measurement": "cell cycle distribution", "setting": "CEM cells [5]", "result": "distinct G2/M arrest"}, {"measurement": "Caspase 3", "setting": "A549 cells", "result": "showed activation"}, {"measurement": "Caspase 9", "setting": "A549 cells", "result": "increase in the cleaved Caspase 9 level"}, {"measurement": "expression level of Cdk6", "setting": "A549 cells", "result": "increased at 24 h followed by a decrease at 48 and 72 h"}, {"measurement": "expression levels of p73", "setting": "A549 cells", "result": "remained same"}, {"measurement": "level of Cyclin B1", "setting": "A549 cells", "result": "maintained throughout the time period, but with a moderate decrease at 48 h"}, {"measurement": "tumor progression (tumor volume)", "setting": "EAC cells tumor", "result": "no further tumor progression"}]}
